These results are taken from a melting point compilation (Tetko et al.; mined from patent text by program, amines drawn as free bases though some values may be those of a salt).

By melting point is commonly meant the temperature of the solid-liquid transition. `CC(=O)N1CCc2cc(C(O)CN(Cc3ccccc3)Cc3ccccc3)ccc21` (stereo not given) showed a melting point of 116 °C.

In turn, `COC(=O)c1ccc(/C=C/C(=O)O)s1` registered a melting point of 180 °C.

The compound `O=C(Cc1ccccc1)c1cccnc1` displayed a melting point of 61 to 62 °C.

`COc1ccc(CN2C(CN3CCOCC3)=Cc3ccsc3S2(=O)=O)cc1` registered a melting point of 112 to 114 °C.

Compound `Clc1cccc(-n2c(/C=C/c3ccccc3)nc3ccccc32)n1` registered a melting point of 122 to 123 °C.

Compound `Cc1cc(Oc2c(Cl)cc(C(F)(F)F)cc2Cl)n[nH]1` returned a melting point of 153 to 155 °C.

With `CCOC(=O)c1cc(C)cc([N+](=O)[O-])c1O`, the melting point turned out to be 97 °C.

`CC(C)C(C)OC(=S)c1ccc(N)cc1Cl` (stereo not given) showed a melting point of 43 to 46 °C.

Take `O=C(C(=O)c1cccc(F)c1)c1cccc(F)c1`: the melting point lay in the range of 104 to 105 °C.

The compound `COC(=O)c1ccc(OCCCN2CCC(C(=O)c3nc4ccccc4s3)CC2)cc1` showed a melting point of 108 to 110 °C.

Compound `O=C(c1ccccn1)c1cnn2c(-c3cccc(C(F)(F)F)c3)ccnc12` returned a melting point of 166 to 167 °C.

Regarding `CCOc1ccc(-c2nnc(Nc3ccc(Br)c(Cl)c3)s2)cc1`, the melting point was in the range of 225 to 226 °C.

The compound `NCC(=NNc1ccccc1)c1ccccc1` came in with a melting point of 106 to 108 °C.

As to `Cc1ccc(-c2ccc(C(=O)Nc3cc4ncc(CN5CCCC5)cc4cc3C)cc2)cc1`, the melting point lay within 191 to 193 °C.

`COC(=O)Cc1ccc(OCCNC(=O)C2Cc3ccccc3N2S(=O)(=O)c2ccc(-c3ccc(F)cc3)c(C(F)(F)F)c2)cc1` (stereo not given) returned a melting point of 60 °C.

`CCOC(=O)c1nc(N)sc1C(C)=O` displayed a melting point of 162 to 164 °C.

`COC(=O)c1ccc(OCCNC(=O)C2Cc3ccccc3N2S(=O)(=O)c2ccc(-c3cc(C(F)(F)F)ccc3Cl)cc2)cc1Cl` (stereo not given) registered a melting point of 70 to 76 °C.

As for `CC(=O)N1CCc2cc(S(=O)(=O)C[N+](=O)[O-])ccc21`, the melting point stood at 210 °C.

Regarding `COc1ccc([C@H]2[C@@H](c3ccccc3)C2(Cl)Cl)cc1` (relative stereo), the melting point was in the range of 59 to 60 °C.

Compound `C[C@H](NC(=O)C(SC(=O)c1ccccc1)SC(=O)c1ccccc1)C(=O)O` yielded a melting point of 161 to 162 °C.

As to `O=C(NC12CC3CC(CC(C3)C1)C2)c1ccccc1C(c1ccc(O)cc1)c1ccc(O)cc1`, the melting point was in the range of 167 to 169 °C.

The compound `O=C(O)CCc1ocnc1-c1ccccc1` returned a melting point of 142 to 143 °C.

Compound `CC(C)OC(=O)C(C)Oc1ncn(-c2cccc(C(F)(F)F)c2)n1` (stereo not given) showed a melting point of 97 to 99 °C.

As for `CCN1CCc2nc(N3CCNCC3)ncc2C1=O`, the melting point was in the range of 205 to 210 °C.

In the case of `O=C(N[C@H](Cc1ccc(CC(F)(F)C(F)(F)F)cc1)[C@@H](O)c1cccc(Cl)c1)c1cccc2c1C=CCCC2` (racemic), the melting point lay in the range of 176 to 177 °C.

On to `CC(=O)N1CCC(OC(CO)c2ccccc2)CC1` (stereo not given), for which the melting point was in the range of 92 to 94 °C.

As to `CNc1ccc2[nH]ccc2c1`, the melting point is 113 to 114 °C.

In turn, `CC(=O)N1CCN(N)c2ccccc2C1` came in with a melting point of 66 to 68 °C.

The compound `Cc1[nH]c(=O)[nH]c1C(=O)c1ccncc1` yielded a melting point of 295 to 296 °C.

`CCOCOC(=O)c1c(I)cc(I)c(NC(C)=O)c1I`: the melting point was 174 to 178 °C.

For `COc1ccccc1CN[C@H]1CCCN[C@H]1c1ccc2ccccc2c1` (relative stereo), the melting point was over 250 °C.

With `Cn1ncc(CCC(=O)O)c1-c1ccc(Cl)cc1`, the melting point was 138 to 140 °C.

As for `CCOC(=O)CCCOc1ccc(C=Cc2ccncc2)cc1`, the melting point was in the range of 83 to 85 °C.

`COc1cc(COc2nn(C)cc2C=O)ccc1OCc1nc(-c2ccccc2)oc1C` gave a melting point of 123 to 124 °C.

`O=C1C[C@@H]2CCC(c3ccccc3)=C[C@@H]2O1` (relative stereo) registered a melting point of 90 to 92 °C.

As for `CCc1c(CNc2cccc(N)n2)c(CC)c(CNc2cccc(N)n2)c(CC)c1CNc1cccc(N)n1`, the melting point was 164 to 165 °C.

Take `CC(=O)Nn1c2c(c3ccccc31)Cc1ccccc1-2`: the melting point was over 240 °C.

With `CCCCCCCCOc1ccc(C2CN=C(c3c(F)cccc3Cl)S2)cc1` (stereo not given), the melting point lay within 41 to 41.5 °C.

Turning to `C[Si](C)(C)Oc1ccc(SSc2ccc(O[Si](C)(C)C)cc2)cc1`, the melting point lay in the range of 21 to 22 °C.

Turning to `N#Cc1nn(-c2c(Cl)cc(C(F)(F)F)cc2Cl)c(N)c1-c1ccoc1`, the melting point was in the range of 180 to 181 °C.

For the compound `COC(=O)c1cc2cc(OC)c(OC)cc2c(-c2ccnc(-n3c(=O)cc(C(=O)N4CCOCC4)c4ccccc43)c2)c1C(=O)OC`, the melting point was in the range of 247 to 249 °C.

`O=C1C(O)OCN1c1ccc(Cl)c(Br)c1` (stereo not given) had a melting point of 139 to 140 °C.

On to `COc1cc(C2CCN(C[C@H](Oc3ncc4ccc(-c5ccccc5N(C)S(C)(=O)=O)n4n3)C(F)(F)F)CC2)ccc1N`, for which the melting point is 85 to 96 °C.

In turn, `CN(C)Cc1ccc2c(c1)c(C1CCN(CCN3CCNC3=O)CC1)cn2-c1ccc(F)cc1` registered a melting point of 166 to 174 °C.

Compound `COC(=O)C1=C(C)N(C)C(C)=C(C(=O)OC)C1c1ccccc1` displayed a melting point of 151 to 153 °C.

The compound `CSc1sc(-c2nnc(C)o2)c2c1C(=O)CC(C)(C)C2` had a melting point of 186 to 188 °C.

`Cn1c(-c2ccc(Cl)cc2)cc2cc(C(=O)O)ccc21` gave a melting point of over 260 °C.

The compound `CCOC(=O)c1ccc(N2CCN(Cc3c[nH]c4ncccc34)CC2)cc1` gave a melting point of 196 to 197 °C.

The compound `O=Cc1c(OCCCCC(=O)O)ccc(C(=O)O)c1O` registered a melting point of 165 to 166 °C.

Turning to `NC(=S)NN=C(CCCCl)c1cccs1`, the melting point lay in the range of 120 to 122 °C.

Compound `CCCSc1ncc(C=C(Cc2cccs2)C(=O)O)n1Cc1ccccc1Cl` gave a melting point of 161 to 162 °C.

With `CCOC(=O)C(=O)c1ccc(OCC(=O)c2c(C)cc(C)cc2C)cc1`, the melting point fell in the range of 68.5 to 70 °C.

Compound `CC(O)C(Cc1cc(C(C)(C)C)c(O)c(C(C)(C)C)c1)C(C)O` (stereo not given) yielded a melting point of 102 to 105 °C.

The compound `CC(c1cccc(NC(=O)NC2N=C(c3ccccc3F)c3ccccc3N(CC(=O)N3CC4CCC(CC4)C3)C2=O)c1)S(=O)(=O)O` (racemic) came in with a melting point of over 250 °C.

`N=C(NO)c1ccc(-c2cccc(-c3nc4cc(C(=N)NO)ccc4[nH]3)c2O)cc1` displayed a melting point of 322 to 325 °C.

`COc1ccc2c(c1)C(=C1CCN(Cc3ccccc3)CC1)C(=O)N2` showed a melting point of 152 °C.

Consider `CC(C)(C)c1cc(-c2nn(CCC(=O)O)c3ncccc23)cc(C(C)(C)C)c1O`, for which the melting point was 183 to 186 °C.

Take `O=C(Nc1ccc(-c2nc3ccccc3s2)cc1)C(Cl)Cl`: the melting point lay within 223 to 225 °C.

`COc1ccc(-c2ccc(C(C)=NO)cc2)cc1` registered a melting point of 82 to 84 °C.

Regarding `CC(/C=C/C1=C(c2ccc3c(c2)C(C)(C)CCC3(C)C)CCCC1)=C\C(=O)O`, the melting point was 198 to 199 °C.

Take `CCOc1c(CCl)c(CCl)c(OCC)c2ccccc12`: the melting point is 110 °C.

In turn, `N=c1[nH]c(=O)c2nc[nH]c2c(=O)[nH]1` displayed a melting point of over 220 °C.

`Cc1ccc2c(n1)C(C(N)=O)CCC2` (stereo not given) returned a melting point of 114 °C.

For `Cc1ccc(Oc2ccc(C=O)cc2)cn1`, the melting point was 45 to 46 °C.

In the case of `N#Cc1nn(-c2c(Cl)cc(C(F)(F)F)cc2Cl)c(-n2cncn2)c1S(=O)(=O)C(F)(F)F`, the melting point is 172 to 174 °C.

Turning to `CC(=O)COc1cc2c3ccccc3n(Cc3ccccc3)c2cn1`, the melting point fell in the range of 141 to 142 °C.

`CCOC(=O)C(Cc1ccc(C(F)(F)F)cc1)C(=O)c1cccc(F)c1` (stereo not given) registered a melting point of 50 to 51 °C.

With `N#CC1Cc2ccc(N)cc2C1` (stereo not given), the melting point fell in the range of 73 to 76 °C.

`NC1=NN(c2ccc(OCc3ccccc3)cc2)CC1`: the melting point is 148 to 149 °C.

`COC(=O)c1cc(Cl)c(N)c(Cl)c1` gave a melting point of 72 to 74 °C.

Regarding `O=C1c2ccccc2-c2c1c(Cl)nc1cc(O)ccc21`, the melting point was over 300 °C.

Regarding `O=C(O)c1cn(Cc2ccccc2)c2cc(N3CCNCC3)c(F)cc2c1=O`, the melting point was 250 to 253 °C.

As to `COc1cc(-n2c(-c3ccc(SC)cc3)nc(SC)c(C#N)c2=O)cc(OC)c1OC`, the melting point fell in the range of 192 to 195 °C.

As to `CC(C)(C)OC(=O)N[C@@H](Cc1ccccc1)[C@@H](O)[C@@H](NCc1cccc2ccccc12)C(=O)O`, the melting point is 225 to 227 °C.

The compound `Oc1ccc(-c2nn(C3CCCC3)c3c(F)cccc23)cc1` showed a melting point of 131 °C.

In turn, `NC(=O)N(O)CCOc1ccc2c(c1)CCN(CCCc1ccccc1)S2(=O)=O` yielded a melting point of 134 to 135 °C.

The compound `CCCCSc1cc([N+](=O)[O-])cc2c1C(=O)OC2=O` yielded a melting point of 95 to 97 °C.

`CC(=O)OCc1ccc2oc(=O)c(C(=O)Oc3cc(Cl)ccc3Cl)cc2c1` yielded a melting point of 168 to 171 °C.

`O=P1(O)Oc2c(-c3ccc(Cl)cc3)cc(Cl)cc2-c2ccc(Cl)cc21` showed a melting point of 260 °C.

The compound `CCOC(=O)c1csc(Cc2ccc(NC(=O)/C=C/c3cnn(C)c3-c3ccc(F)cc3)cc2)n1` displayed a melting point of 189 to 190 °C.

`CC(SCc1nccc2ccccc12)C(=O)O` (stereo not given): the melting point lay in the range of 153 to 156 °C.

`Nc1ccc(C2=NNC(=O)CC2)cc1[N+](=O)[O-]` yielded a melting point of over 330 °C.

Compound `Cc1cc([N+](=O)[O-])c(Cl)nc1C` displayed a melting point of 72 to 76 °C.

With `NC(=O)CN1C(=O)[C@@H](NC(=O)c2ccc(Cl)cc2)[C@H](c2ccccc2)Sc2ccccc21` (relative stereo), the melting point fell in the range of 272 to 275 °C.

On to `CC(C)(C)OC(=O)N[C@H]1CCc2cc(-c3ccccc3)ccc2NC1=O`, for which the melting point fell in the range of 198 to 200 °C.

In turn, `CON=C(C(=O)O)c1cnsn1` had a melting point of 99 to 100 °C.

As to `Cc1ccc(C2=NNC(=O)CC2)c(O)c1`, the melting point fell in the range of 210 to 211 °C.

The compound `CCCn1nnc(-c2cnc3ccccn3c2=O)n1` came in with a melting point of 115 to 116 °C.

`COC(=O)c1cc(=O)c2oc3ccc(Cl)cc3c(=O)c2[nH]1` yielded a melting point of 300 to 305 °C.

Compound `COC(Cc1nsc(N)n1)OC` gave a melting point of 62 to 66.5 °C.
